Laboratory results taken from patent EP0461043A2, “Enantiomer separation by transesterification” (SEPRACOR, INC., priority 1990, dated 1991).
Counter-ions that a name gives are not always drawn.

Key:
[1] = L form relative to D form; cited from earlier work
[2] = Water solubility; format: physicochemical; conditions: for solubility in water: esters, values given in mM; for water solubility: charged water-soluble reactant esters (salts), values given in M

Row | Structure (SMILES) | solubility in water [2] | water solubility [2] [mM] | further results
1 | CC(C)NCC(O)COc1cccc2ccccc12 (stereo not drawn) [L form of the beta blocker propranolol, propranolol] |  |  | times more potent than the D form [1]: 100 times
2 | CCCCCCCCOC(=O)C(C)Cl (stereo not drawn) [octyl ester of 2-chloropropanoic acid] | about 1.2 mM |  | 
3 | CC(C)Cc1ccc(C(C)C(=O)OCC[N+](C)(C)C)cc1 (stereo not drawn) [methyl sulfate salt of N,N,N-trimethylammonium ethyl ester of Ibuprofen] |  | 2180 | 
4 | COc1ccc2cc(C(C)C(=O)OCC[N+](C)(C)C)ccc2c1 (racemic) [choline ester of 2-(6-methoxy-2-naphthyl) propanoic acid] |  | 1610 | 
5 | CC(C)Cc1ccc(C(C)C(=O)O)cc1 (stereo not drawn) [Ibuprofen, 2-(p-isobutylphenyl) propanoic acid, reference compound] |  |  | water solubility at room temperature ([2]; acid forms, room temperature, varies with pH): single digit mM range
6 | COCCOC(=O)C(C)c1ccc(CC(C)C)cc1 (stereo not drawn) [methoxy-ethyl ester of Ibuprofen] | approximately 0.18 mM |  | 
